The target of assay [1] is T1, human CCK-B/gastrin receptor (Homo sapiens, UniProt P32239).
T1 construct: expressed in transfected cells; host or cells: CHO cells (Chinese hamster ovary)
T1 sequence (P32239 1-447): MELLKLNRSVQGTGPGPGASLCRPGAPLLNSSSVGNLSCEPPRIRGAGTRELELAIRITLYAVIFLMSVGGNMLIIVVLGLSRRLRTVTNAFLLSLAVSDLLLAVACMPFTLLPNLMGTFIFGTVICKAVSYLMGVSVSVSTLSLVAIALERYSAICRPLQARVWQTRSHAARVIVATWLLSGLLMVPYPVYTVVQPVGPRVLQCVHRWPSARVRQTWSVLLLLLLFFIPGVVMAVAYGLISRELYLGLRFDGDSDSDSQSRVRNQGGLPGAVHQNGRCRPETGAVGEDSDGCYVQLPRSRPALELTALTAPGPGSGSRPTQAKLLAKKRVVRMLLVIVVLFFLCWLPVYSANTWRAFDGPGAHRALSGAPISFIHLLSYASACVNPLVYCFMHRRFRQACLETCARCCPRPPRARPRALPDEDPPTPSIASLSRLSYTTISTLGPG
The assay is described as follows: Inhibition of binding against gastrin receptor (125I-gastrin, CHO cells). The settings on record: [125I]gastrin 25 pM, CHO cells expressing human CCK-B/gastrin receptor, 37° C. The protocol: (§1) Separation of human CCK-B/gastrin receptor cDNA clone, separation of human CCK-A receptor cDNA clone, and expression of respective cloned receptors in heterologous cells.
(§2) cDNA of human CCK-B/gastrin receptor cDNA (Pisegna et al.: Biochem. Biophys. Res. Commun., 189, 296-303, 1992) and human CCK-A receptor cDNA (Ulrich et al.: Biochem. Biophys. Res. Commun., 193, 204-211, 1993) have already been isolated. The cDNAs having the reported nucleotide sequences were prepared using routine genetic engineering techniques. The isolated human CCK-B/gastrin receptor cDNA or human CCK-A receptor cDNA was integrated in an expression vector using routine genetic engineering techniques and transfected to CHO cells derived from the Chinese hamster ovary so as to induce expression of respective receptors.
The compounds of the present invention were evaluated by the receptor-binding assay using ^125 I-gastrin and human CCK-B/gastrin receptor expressed in CHO cells. CHO cells expressing the human CCK-B/gastrin receptor were cultured using a Dulbecco's modified Eagle minimum essential medium: nutrient mixture F-12 (hereinafter abbreviated as DMEM/F-12) containing 10% fetal bovine serum at 37° C. in an aerobic phase of 5% CO2 and 95% air. Using a culture dish having a diameter of 16 mm (base area: 2 cm^2), the cells were cultured so as to obtain 5×10^5 cells. The cells were washed with a binding buffer (Earle's balanced salt solution containing 10 mM 4-(2-hydroxyethyl)-1-piperazine ethanesulfonic acid (HEPES) (pH 7.4), 0.1% bovine serum albumin, 2 mM glutamine, and 0.22% sodium hydrogen carbonate) twice, after which a binding buffer (0.5 ml) was added to the dish. To this binding buffer, a test compound (5 μl) dissolved in dimethylsulfoxide (DMSO) was added. The reaction was then allowed to start by adding 0.01 ml (final concentration: 25 pM) of [^125 I]gastrin. When a nonspecific binding amount was obtained, reaction was carried out in the presence of 1 μM of non-labelled gastrin. Reaction was allowed to proceed at 37° C. in an aerobic phase of 5% CO2 and 95% air, after which the cells were washed with phosphate-buffered saline (PBS). [^125 I]gastrin which had not been bound to the cells was removed, and the cells were lysed by adding 1% Triton X-100 (250 μl) to the dish. Radioactivity of this solution was measured by a gamma counter. A specific binding amount was obtained by subtracting a nonspecific binding amount from a total binding amount. Using the thus-obtained specific binding amount, the percentage of the value obtained from a test substance addition group with respect to that of the DMSO addition group was calculated. The percentage was subjected to Hill conversion and then a least squares method, obtaining a 50% inhibitory concentration (IC50).

A further assay addresses T2, human CCK-A receptor (Homo sapiens, UniProt P32238).
T2 construct: expressed in transfected cells; host or cells: CHO cells (Chinese hamster ovary)
T2 sequence (P32238 1-428): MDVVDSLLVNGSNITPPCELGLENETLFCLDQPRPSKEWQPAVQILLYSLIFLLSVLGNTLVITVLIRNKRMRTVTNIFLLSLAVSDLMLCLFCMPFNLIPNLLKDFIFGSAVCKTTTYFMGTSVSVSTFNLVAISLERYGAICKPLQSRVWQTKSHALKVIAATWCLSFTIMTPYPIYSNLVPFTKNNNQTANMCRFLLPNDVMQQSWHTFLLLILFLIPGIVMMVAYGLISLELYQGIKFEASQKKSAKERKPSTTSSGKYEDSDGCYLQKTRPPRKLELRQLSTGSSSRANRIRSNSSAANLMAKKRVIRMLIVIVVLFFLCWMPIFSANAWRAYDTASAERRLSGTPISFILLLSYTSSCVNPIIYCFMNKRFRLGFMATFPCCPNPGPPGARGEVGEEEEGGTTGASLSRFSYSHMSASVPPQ
The assay is described as follows: Inhibition of binding against CCK-A receptor (125I-CCK8, CHO cells). The conditions noted are these: for receptor selectivity (IC50 ratio of CCK-A/gastrin): factor; for pIC50: [125I]CCK8 25 pM, CHO cells expressing human CCK-A receptor, 37° C. On the procedure: as §1, §2
Test method: The compounds of the present invention were evaluated by the receptor-binding assay using ^125 I-gastrin and human CCK-B/gastrin receptor expressed in CHO cells. CHO cells expressing a human CCK-A receptor were cultured using a DMEM/F-12 containing 10% fetal bovine serum at 37° C. in an aerobic phase of 5% CO2 and 95% air. Using a culture dish having a diameter of 16 mm (base area: 2 cm^2), the cells were cultured so as to obtain 5×10^5 cells. The cells were washed with a binding buffer (Earle's balanced salt solution containing 10 mM HEPES (pH 7.4), 0.1% bovine serum albumin, 2 mM glutamine, and 0.22% sodium hydrogen carbonate) twice, after which a binding buffer (0.5 ml) was added to the dish. To this binding buffer, a test compound (5 μl) dissolved in DMSO was added. The reaction was then allowed to start by adding 0.01 ml (final concentration: 25 pM) of [^125 I]CCK8. When a nonspecific binding amount was obtained, reaction was carried out in the presence of 1 μM of non-labelled CCK-8. Reaction was allowed to proceed at 37° C. in an aerobic phase of 5% CO2 and 95% air, after which the cells were washed with PBS. [^125 I]CCK8 which had not been bound to the cells was removed, and the cells were lysed by adding 1% Triton X-100 (250 μl) to the dish. Radioactivity of this solution was measured by a gamma counter. A specific binding amount was obtained by subtracting a nonspecific binding amount from a total binding amount. Using the thus-obtained specific binding amount, the percentage of the value obtained from a test substance addition group with respect to that of the DMSO addition group was calculated. The percentage was subjected to Hill conversion and then to a least squares method, obtaining a 50% inhibitory concentration (IC50).

SMILES strings stand for the structures. pIC50: −log10 of the molar value.

As a reminder, the pIC50 is the negative decadic logarithm of the IC50, by convention in mol/L. `Cc1cc(C)cc(N(C)C(=O)COc2ccccc2N(CC(=O)N(C)c2ccccc2)C(=O)CNC(=O)Nc2cccc(C(C)C(=O)O)c2)c1` (racemic) [Example 92, Sodium (±)-2-[3-[3-[N-[2-[N-methyl-N-(3,5-dimethylphenyl)carbamoylmethyloxy]phenyl]-N-(N-methyl-N-phenylcarbamoylmethyl)carbamoylmethyl]ureido]phenyl]sodium propionate]: the pIC50 was 9.30 in assay [1] and 5.44 at human CCK-A receptor. For the same molecule, the “receptor selectivity (IC50 ratio of CCK-A/gastrin)” value on human CCK-A receptor was found to be 7280.
Molecule `COc1cccc(N(C)C(=O)COc2ccccc2N(CC(=O)N(C)c2ccccc2)C(=O)CNC(=O)Nc2cccc(C(C)C(=O)O)c2)c1` (racemic) [Example 86, (±)-2-[3-[3-[N-[2-[N-(3-Methoxyphenyl)-N-methylcarbamoylmethyloxy]phenyl]-N-(N-methyl-N-phenylcarbamoylmethyl)carbamoylmethyl]ureido]phenyl]propionic acid] had a pIC50 in assay [1] of 9.00.
Turning to `COc1cccc(N(CC(=O)N(C)c2ccccc2)C(=O)CNC(=O)Nc2cccc(C(C)S(=O)(=O)O)c2)c1` (racemic) [Control compound A, potassium (±)-1-[3-[3-[N-(3-methoxyphenyl-N-(N-methyl-N-phenylcarbomoylmethyl)-carbamoylmethyl]ureido]phenylethane sulfonate, reference compound], the negative-log IC50 (pIC50) was 8.19 in assay [1] and 5.83 on human CCK-A receptor. Also, the “receptor selectivity (IC50 ratio of CCK-A/gastrin)” value on human CCK-A receptor is on record as 238.
Taken in the same sequence, the figures for `COc1cccc(N(C)C(=O)COc2ccccc2N(CC(=O)N(C)c2ccccc2)C(=O)CNC(=O)Nc2cccc(CC(=O)O)c2)c1` [Example 87, 2-[3-[3-[N-[2-[N-(3-Methoxyphenyl)-N-methylcarbamoylmethyloxy]phenyl]-N-(N-methyl-N-phenylcarbamoylmethyl)carbamoylmethyl]ureido]phenyl]acetic acid] were 9.06, 5.50 and 3654.
In turn, `Cc1ccccc1N(C)C(=O)COc1cccc(N(CC(=O)N(C)c2ccccc2)C(=O)CNC(=O)Nc2cccc(C(C)C(=O)O)c2)c1` (racemic) [Example 79, (±)-2-[3-[3-[N-[3-[N-Methyl-N-(2-methylphenyl)carbamoylmethyloxy]phenyl]-N-(N-methyl-N-phenylcarbamoylmethyl)carbamoylmethyl]ureido]phenyl]propionic acid] gave a pIC50 in assay [1] of 8.80.
Same read-out and setting: the figure for `Cc1cccc(N(C)C(=O)COc2ccccc2N(CC(=O)N(C)c2ccccc2)C(=O)CNC(=O)Nc2cccc(CC(=O)O)c2)c1` [Example 73, 2-[3-[3-[N-[2-[N-Methyl-N-(3-methylphenyl)carbamoylmethyloxy]phenyl]-N-(N-methyl-N-phenylcarbamoylmethyl)carbamoylmethyl]ureido]phenyl]acetic acid] is 8.72.

The values are drawn from patent publication US5919824A, “Aminophenol derivatives” (Daiichi Pharmaceutical Co., Ltd., priority 1995, dated 1999).
